From patent US12116614B2, “Methods for determining antibiotic sensitivity” (priority 2020, dated 2024)
“Also recorded” adds a separate entry of the source.

What was measured:
[1] = test system: planktonic P. aeruginosa isolate JG1; assay: MIC for planktonic clinical isolate; format: cell-based; details: planktonic P. aeruginosa isolate JG1 from CF sputum
Protocol: (§1) Here both the planktonic and anti-DNABII NRel of JG1 were incubated with ¼ of the indicated MIC of tobramycin.
MIC refers to minimal inhibitory concentration of an active agent such as a drug that is the lowest concentration that will inhibit the visible growth of a microorganism after overnight incubation and minimal bactericidal concentrations as the lowest concentration of an antimicrobial that will prevent the growth of an organism after subculture on antibiotic free media. Methods to determine these values are well known in the art and describe in Andrews, J. (2002) Antimicrob Chemother June; 49(6):1049.

[2] = test system: P. aeruginosa isolate JG1; assay: Killing of planktonic and anti-DNABII NRel of clinical isolate at 1/4 MIC; format: cell-based
Protocol: as §1

[3] = test system: A. baumanii; assay: Relative percent killing of planktonic versus anti-DNABII NRel by top-line antibiotics; format: cell-based; details: 16-hour biofilms, HuTipMab 30 minutes, antibiotic 2 hours
Protocol: FIGS. 11A and 11B show relative percent killing of planktonic versus anti-DNABII NRel of five diverse species of human pathogens by each of the three current top-line antibiotics used to treat individuals with disease due to the indicated pathogen. Using the methods described herein, planktonic bacteria were recovered mid-log phase. NRel were induced by incubation of 16-hour biofilms with HuTipMab for 30 minutes. Planktonic and NRel populations were then incubated with each of three top-line antibiotics for 2 hours to determine relative percent killing. […] See boxed data in FIG. 11B for NTHI and S. aureus.

[4] = test system: NRel versus Non-Associated NTHI
Description: Applicant tested for this phenotype for either Amox/Clav or Trimethoprim/Sulfamethoxazole to determine when this sensitivity first appears and how long this NRel phenotype lasts (i.e. what is the window of opportunity in which to treat a patient with a biofilm disease?). Here, NRel are compared not to planktonic bacteria (due to their artificiality) but rather to “Non-Associated” bacteria which are those found in the supernatant above the biofilm but not associated with biofilm residence as this population represents those bacteria that naturally come off the biofilm or were never a part of the biofilm which is a normal aspect of the preferred bacterial lifestyle in nature. […] Box Legend: NRelAC—relative killing by Amox/Clav; NRel TS—relative killing by Trimethoprim/Sulfamethoxazole; open symbols are the same but for the non-associated populations of bacteria as now described in this legend. Data was generated with a murine anti-tip chimer antibody.
Box Legend: NRelAC—relative killing by Amox/Clav; NRel TS—relative killing by Trimethoprim/Sulfamethoxazole; open symbols are the same but for the non-associated populations of bacteria as now described in this legend. Data was generated with a murine anti-tip chimer antibody.

[5] = test system: NTHI (biofilm-resident, planktonic, anti-rsPilA NRel, anti-IHF NRel); assay: Antibiotic sensitivity of biofilm-resident, planktonic or NRel NTHI (2 h antibiotic exposure, CFU plating); format: cell-based, Nontypeable Haemophilus influenzae
Protocol: Biofilms were established for 16 hr at 37° C. as described above. For biofilm-resident NTHI: biofilms were washed twice with DPBS and incubated in sBHI supplemented with the indicated antibiotics for at 37° C. 2 h. For planktonic NTHI: NTHI were incubated in sBHI for 3 hr as described above to reach log phase of growth, then diluted to the approximate concentration of either the anti-IHF (2×10^8 CFU/ml) or anti-rsPilA NRels (3×10^8 CFU/ml) to permit comparison between anti-IHF or anti-rsPilA NRels, (see FIG. 1). Planktonic NTHI were incubated with the indicated antibiotics at 37° C. for 2 hr. For NRel NTHI: anti-IHF or anti-rsPilA NRel, generated and collected as described above were incubated at 37° C. for 2 hr with the indicated antibiotics. CFU NTHI were determined by serial dilution and plating. Amoxicillin (Sigma-Aldrich, St. Louis, MO) and clavulanate (U.S. Pharmacopeia, Rockville, MD) were used at a ratio of 2:1. Trimethoprim (Sigma-Aldrich) and sulfamethoxazole (Santa Cruz Biotech, Dallas, TX) were used at a ratio of 1:5. […] All experiments were performed at least three times on separate days with two technical replicates for each treatment and control group.
To avoid excessive manipulation or dilution of NRel NTHI, and to permit direct comparison of equal numbers of planktonic and NRel, the planktonic cell density was adjusted to the same CFU per ml as the NRel population in each experiment as follows: NTHI were incubated statically to mid log phase growth then diluted to either 3×10^8 CFU/ml for comparison with anti-rsPilA NRel collected at 6 h, or to 2×10^8 CFU/ml for comparison with anti-IHF NRel collected at 15 min (see FIG. 1). Applicant then determined the concentrations of amoxicillin (Sigma-Aldrich, St. Louis, MO) and clavulanate (U.S. Pharmacopeia, Rockville, MD), or of trimethoprim (Sigma-Aldrich) and sulfamethoxazole (Santa Cruz Biotech, Dallas, TX) that killed approximately 25% of planktonic NTHI at each density. The same antibiotic concentrations were used for the anti-IHF or anti-rsPilA NRel, the density-matched (same CFU/ml) planktonic NTHI, and the adherent biofilm for each relevant experiment. […] Applicant then assessed killing of anti-IHF or anti-rsPilA NRel by concentrations of amoxicillin plus clavulanic acid (“augmentin”, AMC) or trimethoprim plus sulfamethoxazole (TMP-SMX) that killed 25% of the planktonic NTHI at the same density.
Anti-rsPilA or anti-IHF NRel were collected and sonicated as described above. After sonication for 2 min in a water bath sonicator to break up any NTHI aggregates, NRel or planktonic NTHI were incubated with the indicated antibiotics at 37° C. for 2 h, then serially diluted and plated on chocolate agar to quantify viable NTHI. To assay biofilm-resident NTHI, biofilms were established for 16 h at 37° C. as described above, washed twice with DPBS and incubated in sBHI supplemented with the indicated antibiotics at 37° C. After 2 h, biofilm-resident NTHI were collected by forceful pipetting, sonicated for 2 min and enumerated as described above. All experiments were performed at least three times on separate days with two or three technical replicates for each treatment and control group.

[6] = test system: B. cenocepacia; assay: Time and dose-dependent release into NRel state from established biofilms by HuTipMab; format: cell-based; details: B. cenocepacia biofilm; versus HuIgG negative control
Protocol: (§2) FIGS. 8A to 8F show the time and dose-dependence of release of six diverse species of human pathogens into the NRel state by anti-DNABII which occurs when established biofilms are incubated with a humanized monoclonal antibody raised against a chimeric peptide identified as IhfA5-mIhfB4 tip chimer (The humanized antibody utilized in this example (identified in the Figure and herein as “HuTipMab”) comprises heavy chain 1 (HCl) and light chain 2 (LC2) as disclosed herein) but not when similarly incubated with the negative control (“HulgG” a commercially available naïve human serum of the isotype IgG).

[7] = test system: P. aeruginosa; assay: as above; format: cell-based; details: P. aeruginosa biofilm; versus HuIgG negative control
Protocol: as §2

[8] = test system: nontypeable H. influenzae (NTHI); assay: as above; format: cell-based; details: NTHI biofilm; versus HuIgG negative control
Protocol: as §2

[9] = test system: S. aureus; assay: as above; format: cell-based; details: S. aureus biofilm; versus HuIgG negative control
Protocol: as §2

[10] = test system: S. pneumoniae; assay: as above; format: cell-based; details: S. pneumoniae biofilm; versus HuIgG negative control
Protocol: as §2

[11] = test system: A. baumanii; assay: as above; format: cell-based; details: A. baumanii biofilm; versus HuIgG negative control
Protocol: as §2

[12] = after exposure to anti-DNABII antibody

Molecule: NC[C@H]1O[C@H](O[C@H]2[C@H](O)[C@@H](O[C@H]3O[C@H](CO)[C@@H](O)[C@H](N)[C@H]3O)[C@H](N)C[C@@H]2N)[C@H](N)C[C@@H]1O [tobramycin]
- MIC [1]: 4086 μg tobramycin/ml
- killing of anti-DNABII NRel of JG1 compared to planktonic ([2]; 1/4 MIC tobramycin, n=3, p≤0.01): significantly more sensitive to killing
- planktonic JG1 killed ([2]; 1/4 of the MIC of tobramycin): ~25%
- relative killing of anti-DNABII NRel versus planktonic [3]: not killed significantly greater

Molecule: amoxicillin and clavulanic acid [A/C]
- sensitivity of anti-DNABII NRel to killing compared to Non-Associated bacteria ([4]; NRel induced with murine anti-tip chimer antibody): significantly greater sensitivity
- time at which sensitivity of anti-DNABII NRel reaches a maximum [4, 12]: ≤ 2 h
- time at which significantly greater sensitivity of anti-DNABII NRel occurs [4, 12]: ≤ 5 min
- time until which greater sensitivity of anti-DNABII NRel lasts [4, 12]: ~3 h
- time by which greater sensitivity of anti-DNABII NRel wanes ([4]; post exposure to anti-DNABII antibody): ≤ 6 h
- sensitivity of biofilm-resident NTHI to killing ([5]; 16 h biofilm, 2 h antibiotic): minimal sensitivity
- sensitivity to killing of anti-IHF NRel compared to biofilm-resident NTHI ([5]; NRel after 15 min anti-IHF, 2 h antibiotic): significantly more sensitive
- sensitivity to killing of anti-IHF NRel compared to planktonic NTHI ([5]; NRel after 15 min anti-IHF, 2 h antibiotic at concentration killing ~20-25% of planktonic NTHI): significantly more sensitive
- sensitivity to killing of anti-rsPilA NRel compared to biofilm-resident NTHI ([5]; NRel after 6 h anti-rsPilA, 2 h antibiotic): significantly more sensitive
- sensitivity to killing of anti-rsPilA NRel compared to planktonic NTHI ([5]; NRel after 6 h anti-rsPilA, 2 h antibiotic at concentration killing ~20-25% of planktonic NTHI): only equally as sensitive; also recorded: only as equally as sensitive
- sensitivity to killing of anti-rsPilA NRel compared to planktonic NTHI ([5]; NRel after 6 h anti-rsPilA, 2 h antibiotic at concentration killing ~20-25% of planktonic NTHI, listed as AMC): only equally as sensitive
- sensitivity to killing of time-matched anti-rsPilA NRel compared to planktonic NTHI ([5]; NRel collected after 2 h, TMP-SMX 0.09 and 0.45 μg per ml, AMC 0.3 and 0.15 μg per ml, listed as AMC): only equally as sensitive; also recorded: equally susceptible
- sensitivity to killing of time-matched anti-IHF NRel compared to planktonic NTHI ([5]; NRel collected after 2 h, TMP-SMX 0.94 and 4.7 μg/ml, AMC 2.5 and 1.25 μg/ml, listed as AMC): significantly more sensitive; also recorded: significantly more susceptible

B1: HuTipMab (antibody)
heavy: EVQLVESGGGLVQPGGSLRLSCAASGFTFRTYAMSWVRQAPGKGLEWVATIGSDRRHTYYPDSVKGRFTISRDNSKNTLYLQMNSLRAEDTAVYYCVGPYDGYYGEFDYWGQGTLVTVSSASTKGPSVFPLAPSSKSTSGGTAALGCLVKDYFPEPVTVSWNSGALTSGVHTFPAVLQSSGLYSLSSVVTVPSSSLGTQTYICNVNHKPSNTKVDKKVEPKSCDKTHTCPPCPAPELLGGPSVFLFPPKPKDTLMISRTPEVTCVVVDVSHEDPEVKFNWYVDGVEVHNAKTKPREEQYNSTYRVVSVLTVLHQDWLNGKEYCKVSNKALPAPIEKTISKAKGQPREPQVYTLPPSREEMTKNQVSLTCLVKGFYPSDIAVEWESNGQPENNYKTTPPVLDSDGSFFLYSKLTVDKSRWQQGNVFSCSVMHEALHNHYTQKSLSLSPG
light: DVVMTQSPLSLPVTLGQPASISCRSSQSLLDSDGKTFLNWLQQRPGQSPRRLIYLVSKRDSGVPDRFSGSGSGTDFTLKISRVEAEDVGVYYCWQGTHFPYTFGQGTKLEIKRTVAAPSVFIFPPSDEQLKSGTASVVCLLNNFYPREAKVQWKVDNALQSGNSQESVTEQDSKDSTYSLSSTLTLSKADYEKHKVYACEVTHQGLSSPVTKSFNRGEC
- release into the NRel state over time [6]: jump in the number of NRel at 30 mins regardless of dose
- release into the NRel state over time [7]: gradual, more linear increase over time
- release into the NRel state over time [8]: jump in the number of NRel at 30 mins regardless of dose
- release into the NRel state over time [9]: jump in the number of NRel at 30 mins regardless of dose
- release into the NRel state over time [10]: gradual, more linear increase over time
- release into the NRel state over time [11]: jump in the number of NRel at 30 mins regardless of dose
